Experimental data from US9797016B2, “Methods and biomarkers for detection of bladder cancer” (OSLO UNIVERSITETSSYKEHUS HF, priority 2010, dated 2017).

Test system: bladder cancer cell lines (5637, J82, SCaBER, TCCSUP)
Experiment: Quantitative gene expression analyses (real-time PCR) after epigenetic drug treatment
Type: cell-based, human
Conditions: hypermethylated bladder cancer cell lines; 1 μM or 5 μM 5-aza-dC alone, 72 hours
Experimental: Cell lines representative of bladder (5637, J82, SCaBER, and TCCSUP), renal cell (786-0, ACHN, Caki-1, Caki-2) and prostate (22Rv1, DU 145, LNCaP, PC-3) cancer were obtained from the American Type Culture Collection (Manassas, Va.). All cell lines were cultured according to the manufacturer's specifications, with 10% fetal bovine serum (Gibco, Invitrogen, Carlsbad, Calif.) and antibiotics (100 units/mL penicillin G, and 100 μg/mL streptomycin, Gibco), in a humidified atmosphere of 5% CO2 at 37° C. […] RNA from four bladder cancer cell lines untreated, treated either with 1 μM or 5 μM of 5-aza-2′-deoxycytidine for 72 hours, and treated with the combination of 1 μM of 5-aza-dC (72 h) and 0.5 μM of trichostatin (added the last 12 h) was analyzed. […] GDF15 (Hs00171132_m1), HSPA2 (Hs00356607_g1), TMEFF2 (Hs01086901_m1), VIM (Hs00185584_m1), and endogenous controls assays GUSB (Hs99999908_m1) and HPRTJ (Hs99999909_m1), were amplified separately in 96-well plates following the recommended protocol (Applied Biosystems), and the real time quantitative gene expression was measured by the 7500 Real-Time PCR System (Applied Biosystems). All samples were analyzed in triplicate, and the mean value was used for data analysis. […]

Nc1ncn([C@H]2C[C@H](O)[C@@H](CO)O2)c(=O)n1 [5-aza-dC, 5-aza-2′-deoxycytidine]
transcript expression of GDF15, HSPA2, TMEFF2 and VIM after promoter demethylation: restored or increased
